According to patent publication US8569229B2, “Compositions and methods which modulate G-protein signaling for the treatment of inflammatory disorders such as asthma and allergic conjunctivitis” (The Children's Hospital of Philadelphia, priority 2008, dated 2013):
“Also recorded” adds a separate entry of the source. Ends that are not written are not given here.

What was measured:
[1] = test system: OVA-sensitized rabbits; assay: Lung histopathology in OVA-sensitized, OVA-challenged rabbits; format: in vivo, rabbit; settings: pretreated OVA-sensitized+OVA challenged rabbits
Experimental: (§1) Both the OVA sensitized and control animals were then challenged with either vehicle (saline) or aerosolized OVA delivered via a nebulizer. The following day, while mechanically ventilated under general anesthesia/paralysis, the rabbits' broncho-constrictor responses to intravenous (i.v.) bolus injections of cumulatively increasing doses of methacholine (MCh) were determined and induced changes in respiratory system resistance (Rrs), measured as previously described (Grunstein et al. J. Appl. Physiol: […]. Environ. Exercise Physiol. 57:1238-1246, 1984). Lung lavage was then performed to obtain bronchoalveolar lavage fluid (BALF) samples, and the lungs were excised for histological examination in H&E-stained paraffin-embedded 4 micron sections.

[2] = test system: OVA-sensitized rabbits; assay: In vivo bronchoconstrictor responses to methacholine (Rrs) in OVA-sensitized, OVA-challenged rabbits; set-up: species or system rabbit; settings: 1 mg/Kg by nebulizer 2 hr prior to OVA challenge, measured 24 hr after challenge
Experimental: as §1

For “MPS-Phosducin-like protein C terminus (AAVALLPAVLLALLAVTDQLGEDFFAVDLEAFLQEFGLLPEKE; also: MPS attached) [anti-Gβγ peptide]”, the “effect on pulmonary inflammatory response (peribronchial and parenchymal inflammatory cell infiltration)” value [1] was “markedly suppressed to a similar extent; also recorded: markedly suppresses”, the “effect on airway constrictor hyper-responsiveness (Rrs responses to MCh)” value [2] was “largely abrogated” and the “effect on airway constrictor hyper-responsiveness (Rrs responses to MCh)” value ([2]; listed as MPS-conjugated anti-G βγ peptide) was “prevented to a similar degree”.
